Test results published in article PMC9318133 (International Journal of Molecular Sciences, 2022).

Experiments:
[1] = Plasma (and brain) levels of JWH-175 and JWH-018 in mice by LC-MS/MS; assay type: in vivo, mouse; conditions: for presence in the brain tissue of mice systemically treated with JWH-175: data not shown
Description: For the in vivo studies, three different groups of mice were selected. […] Urine specimens were collected from mice individually placed inside metabolic cages (Ugo Basile SRL, Gemonio (VA), Italy) with free access to water and food. The same dose of JWH-175 was administered to the second group, and behavioral tests were performed before the blood collection. Tests and sampling were carried out, at 0, 30, 60, and 300 min, on a sub-group of six mice at each time interval. The same behavioral studies and blood sampling were performed on the third group, to which JWH-018 (10 mg/kg) was injected. Blood samples (mean total volume: 500 μL) were collected by submandibular blood collection technique into 1 mL vials containing EDTA (4 mg/mL of blood) as preservative and anticoagulant. After each blood withdrawal, an equal volume of saline solution was subcutaneously injected into mice to maintain volume and osmotic homeostasis. Plasma from collected blood and urine samples were stocked at −20 °C until the analysis.
For blood metabolic profile, samples were centrifugated at 9000× g rpm for 8 min to obtain plasma. Then, 200 µL of the supernatant was added to 500 μL of acetonitrile and centrifugated at 13,000× g rpm for 3 min. The aqueous layer was then collected and added to 50 μL of internal standard solution (10 μg/mL) and 500 μL of phosphate buffer (0.8 M, pH 7.4). Samples were then incubated for 1 h at 55 °C. After hydrolysis, samples were extracted with 5 mL of ethyl acetate. The organic solvent was then dried under nitrogen flow at 40 °C, and the dry residue was resolved in 50 μL of mobile phase and an aliquot of 10 µL was injected into the LC-MS systems.
Samples were analyzed using an Agilent 1200 series high-performance liquid chromatography (HPLC) instrument equipped with a SUPELCO C18 column (15 cm × 2.1 mm × 5 µm) coupled with a Sciex 5500QTRAP triple quadrupole mass spectrometer (Sciex, Milan, Italy) with an ESI source operated in positive ionization mode. Analyses were carried out at a constant flow rate of 250 µL/min using ultra-purified water, 0.1% formic acid (A), and acetonitrile 0.1% formic acid (B) as mobile phase. The gradient started at 5% eluent B, was increased to 65% eluent B in 7 min and after 4 min to 95% eluent B in 2 min, held for 4.5 min, decreased to starting conditions of 5% eluent B in 0.31 min, and held for 2 min for re-equilibration
Multiple reaction monitoring (MRM) was used as the acquisition mode (see Table 3). The MRM method was optimized starting from the protocol employed in our laboratory.

[2] = tested on: fEPSP of CA1 area of mouse hippocampal slice; assay: Electrophysiological recording of fEPSP in hippocampal slices; assay type: cell-based; conditions: for fEPSP slope, % changes compared to control condition: steady state
Description: Procedures for tissue preparation are the same as those described by Ossato et al., 2016 [45]. In brief, after mouse decapitation, the head was immediately chilled in refrigerated artificial cerebrospinal fluid (aCSF, 0 °C) of the following composition (in mM): NaCl, 126; KCl, 2; KH2PO4, 1.25; NaHCO3, 26; MgSO4, 2.0; CaCl2, 2.5; d-glucose, 10. After 1 min, the brain was extracted to isolate the hippocampus and then placed in ice-cold artificial cerebrospinal fluid (aCSF). All solutions were saturated with 95% O2/5% CO2. Transverse hippocampal slices (425 μm thick) were cut with a tissue chopper and then placed for almost 90 min in a Haas-style incubation chamber for recovery before recording.
A single slice was transferred into a submerged-type recording chamber (3 mL total volume) and continuously superfused (3.0 mL/min) with warmed (32–33 °C) aCSF. WINLTP 2.10 computer software was used for stimulus triggering, PC recording, and analysis. Synaptic responses of CA1 pyramidal neurons were elicited by electrical stimulation of the Schaffer collateral/commissural pathway. Single stimulation pulses (80 µs duration; 0.05 Hz) were delivered by mean of a concentric bipolar electrode (o.d. 125 μm, FHC, USA) connected to a Grass S11 stimulator driving a PSIU6 constant current stimulus isolation unit. To record the fEPSPs, borosilicate glass electrodes fabricated using a microelectrode puller (P97, Sutter Instruments) and filled with aCSF (1.5 ± 0.5 MΩ), inserted in the distal third of the stratum radiatum and 200–300 µm away from stimulating electrodes, were used. The maximal fEPSPs response was reached by adjusting the recording electrode depth. Recorded potentials were amplified (Axoprobe 1A DC-coupled—Cyberamp 320, Molecular Devices, Sunnyvale, CA, USA) and filtered (5.0 kHz) prior to A/D conversion. Upon 10 min of stable synaptic response, a stimulus–response curve (SRC) was generated as previously described to extrapolate a stimulation intensity evoking 70% of maximal fEPSP, to be used throughout the experiment. […] To investigate whether the vehicle had any effect on synaptic activity, the superfusion inlet was switched to a reservoir containing aCSF plus the amount of vehicle present for the corresponding drug concentration (sham application), before switching to the solution also including the drug, for comparison. All reservoirs and tubing were on glass or Teflon to avoid the capturing of cannabinoids by plastic or silicon parts.
We analyzed data from in vitro recordings as previously described. […] Effect of treatment was considered steady state when stable +/− 5% for 10 min.

human CB1 receptors = target: T1, human CB1 receptors (Homo sapiens, UniProt P21554); assay: [3H]-CP-55,940 competition binding, CHO cell membranes transfected with human CB1 receptors
T1 construct: host or cells: CHO cells
Description: To obtain membranes, cells were washed with phosphate-buffered saline (PBS) and scraped off with ice-cold hypotonic buffer (5 mM Tris HCl, 2 mM EDTA, pH 7.4). The cell suspension was homogenized with a Polytron and then centrifuged for 30 min at 40,000× g. The membrane pellet was suspended in 50 mM Tris HCl buffer (pH 7.4) containing 2.5 mM ethylenediaminetetraacetic acid (EDTA), 5 mM MgCl2, and 0.5 mg/mL bovine serum albumin (BSA) for CB1 receptors or in 50 mM Tris HCl (pH 7.4), 1 mM EDTA, 5 mM MgCl2, and 0.5% BSA for CB2 receptors.
For human cannabinoid receptors, membranes obtained from CHO cells transfected with human CB1 or CB2 receptors (2 µg protein/100 µL) were used. Competition binding experiments at murine cannabinoid receptors were performed with mouse brain membranes (40 µg protein/100 µL) or with mouse spleen membranes (80 µg protein/100 µL) for CB1 receptors or CB2 receptors, respectively. […] Bound and free radioactivity were separated by filtering the assay mixture through Whatman GF/C glass fiber filters using a Brandel cell harvester (Brandel Instruments, Unterföhring, Germany).
The protein concentration was determined according to a Bio-Rad method with bovine serum albumin as a reference standard. Inhibitory binding constants, Ki, were calculated from the IC50 values according to the Cheng and Prusoff equation:Ki = IC50/(1 + [C*]/KD*) where [C*] is the concentration of the radioligand and KD* its dissociation constant. Functional experiments were analyzed by non-linear regression analysis using the equation for a sigmoid concentration–response curve (GraphPad Prism, San Diego, CA, USA). All the data are expressed as the mean ± SEM of three independent experiments.

CD-1 mice = assay: Core (rectal) temperature evaluation; assay type: in vivo, mouse

T1 sequence (P21554 whole entry): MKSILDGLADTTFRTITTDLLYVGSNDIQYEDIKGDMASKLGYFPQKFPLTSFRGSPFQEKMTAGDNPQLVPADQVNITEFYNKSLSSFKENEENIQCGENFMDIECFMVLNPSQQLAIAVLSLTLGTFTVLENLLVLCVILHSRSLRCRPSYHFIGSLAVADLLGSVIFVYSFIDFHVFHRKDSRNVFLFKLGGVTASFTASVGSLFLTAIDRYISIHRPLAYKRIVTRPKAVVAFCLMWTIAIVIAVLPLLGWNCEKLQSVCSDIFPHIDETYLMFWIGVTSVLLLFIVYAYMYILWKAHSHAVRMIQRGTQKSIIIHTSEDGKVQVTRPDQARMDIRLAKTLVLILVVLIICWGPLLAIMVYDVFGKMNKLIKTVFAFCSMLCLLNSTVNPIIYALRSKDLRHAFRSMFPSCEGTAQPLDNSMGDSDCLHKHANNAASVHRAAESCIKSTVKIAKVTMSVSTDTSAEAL

SMILES	time of peak plasmatic concentration of JWH-018 ([1]; JWH-018 10 mg/kg i.p., mouse plasma) [min]	presence in the brain tissue of mice systemically treated with JWH-175 [1]	fEPSP slope, % changes compared to control condition ([2]; 0.1 µM) [%]	fEPSP slope, % changes compared to control condition ([2]; 0.3 µM) [%]	fEPSP slope, % changes compared to control condition ([2]; 1 µM, last 3 min of recording) [%]	selectivity index (ratio between the Ki value to human CB2 and the Ki value to human CB1) (human CB1 receptors; human CB2 / human CB1)	fold higher affinity than JWH-175 at human CB1 receptors (human CB1 receptors; ratio of Ki values, CHO cell membranes) [fold]	time after administration within which JWH-175 itself was detected in plasma ([1]; JWH-175 10 mg/kg i.p., mouse plasma) [min]	effect on core temperature (CD-1 mice; 0.01–30 mg/kg i.p., monitored over 5 h)	ED50 (CD-1 mice; Mus musculus, ip, mice, ED50 + SEM) [mg/kg]	effect on fEPSP ([2]; 0.01−0.3 µM)	times less potent than JWH-018 in inhibiting fEPSP ([2]; CA1 hippocampal slices, 0.01–1 µM)	Ki (human CB1 receptors) [nM]
CCCCCn1cc(C(=O)c2cccc3ccccc23)c2ccccc21 [JWH-018, 1-naphthalenyl(1-pentyl-1H-indol-3-yl)-methanone]	30	presence	−34.7 ± 7.9	−40.4 ± 8.4	−48.8 ± 7.6	0.9	2.71						
CCCCCn1cc(Cc2cccc3ccccc23)c2ccccc21 [JWH-175, 3-(1-naphthalenylmethyl)-1-pentyl-1H-indole]		only traces			−23.7 ± 5.7			≤ 30	reduced	5.6 ± 0.04	failed to affect fEPSP	about 10 times	25.8 ± 1.9
